Measurements as given in article PMC6832266, “Natural Sesquiterpene Lactones of the 4,15-iso-Atriplicolide Type are Inhibitors of Trypanothione Reductase” (Molecules, 2019).

What was measured:
Format in all cases: biochemical
[1] = biological target: T1, trypanothione reductase (TcTR) (Trypanosoma cruzi, UniProt P28593); test: NADPH-consumption TR assay on recombinant enzyme, % inhibition at […] after […] min preincubation; conditions: read-out: TcTR / % Inhibition at c = 100 μM Preincubation Time (min)
T1 construct: gene TPR
T1 sequence (P28593 whole entry): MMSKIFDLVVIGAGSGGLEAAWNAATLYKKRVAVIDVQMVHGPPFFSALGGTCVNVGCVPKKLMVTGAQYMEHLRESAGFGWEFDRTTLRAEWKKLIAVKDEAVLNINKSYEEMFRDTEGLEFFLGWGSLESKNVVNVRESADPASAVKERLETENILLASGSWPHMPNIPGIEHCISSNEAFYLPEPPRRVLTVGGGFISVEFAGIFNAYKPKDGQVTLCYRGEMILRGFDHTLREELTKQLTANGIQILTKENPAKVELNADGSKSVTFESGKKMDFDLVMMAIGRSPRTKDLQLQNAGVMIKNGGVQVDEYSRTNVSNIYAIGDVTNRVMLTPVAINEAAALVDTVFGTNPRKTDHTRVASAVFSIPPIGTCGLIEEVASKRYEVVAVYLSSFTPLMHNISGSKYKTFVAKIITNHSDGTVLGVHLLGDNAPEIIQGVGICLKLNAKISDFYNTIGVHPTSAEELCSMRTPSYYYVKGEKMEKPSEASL

[2] = biological target: T2, trypanothione reductase (TbTR) (Trypanosoma brucei, UniProt P39051); test: NADPH-consumption TR assay on recombinant enzyme; Lineweaver-Burk kinetics; dilution assay (irreversible, time-dependent)
T2 construct: gene TPR
T2 sequence (P39051 whole entry): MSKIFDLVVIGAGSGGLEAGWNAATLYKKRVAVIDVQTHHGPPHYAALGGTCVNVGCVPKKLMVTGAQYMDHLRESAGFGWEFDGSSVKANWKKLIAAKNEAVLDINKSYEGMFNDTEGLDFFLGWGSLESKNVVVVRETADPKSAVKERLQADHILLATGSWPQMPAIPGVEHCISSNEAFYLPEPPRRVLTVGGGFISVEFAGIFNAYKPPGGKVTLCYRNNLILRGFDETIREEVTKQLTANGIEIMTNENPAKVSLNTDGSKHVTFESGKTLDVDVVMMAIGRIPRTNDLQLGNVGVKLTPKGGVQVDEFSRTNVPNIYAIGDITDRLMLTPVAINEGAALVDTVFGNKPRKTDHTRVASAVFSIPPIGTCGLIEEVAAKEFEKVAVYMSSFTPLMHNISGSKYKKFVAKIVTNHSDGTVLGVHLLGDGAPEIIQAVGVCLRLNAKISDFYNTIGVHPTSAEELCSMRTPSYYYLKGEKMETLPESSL

[3] = biological target: T2, trypanothione reductase (TbTR); test: NADPH-consumption TR assay on recombinant enzyme, % inhibition at […] after […] min preincubation; dilution assay; conditions: read-out: TbTR / % Inhibition at c = 100 μM Preincubation Time (min)

Structure (SMILES) | inhibition at 100 µM [1] | Ki [2] | inhibition at 100 µM [3]
C=C1C[C@H]2OC(=O)C(=C)[C@@H]2[C@H](OC(=O)/C(C)=C/C)C[C@@]2(C)OC1=CC2=O [compound 1, 4,15-iso-Atriplicolide tiglate] | 89 ± 1% | 128 ± 8 µM | 
C=C(C)C(=O)O[C@@H]1C[C@@]2(C)OC(=CC2=O)C(=C)C[C@H]2OC(=O)C(=C)[C@H]12 [compound 2, 4,15-iso-atriplicolide methacrylate] | 41 ± 1% |  | 84%
C=C1C[C@H]2OC(=O)C(=C)[C@@H]2[C@H](OC(=O)C(C)C)C[C@@]2(C)OC1=CC2=O [compound 3, 4,15-iso-atriplicolide isobutyrate] | 80% |  | 79%
